Assay [1] has as its system two slug GPCRs (receptor A and B) expressed in the Sf9 insect cell line. The experiment in a line: Binding assay with peptides: calcium fluorescence (FLIPR Calcium 6) in Sf9 cells expressing slug GPCRs. The assay is classed as cell-based, Deroceras reticulatum. To be noted: for EC50: Sf9 cells expressing receptor A or receptor B, receptor not given; for binding activity / activation of the receptors: alanine-substituted or N-terminally reduced peptides of SEQ ID NO: 3, FIG. 5. An excerpt: The open reading frames (ORFs) of D. reticulatum GPCRs were inserted into a pIB/V5-His TOPO® TA expression vector (Thermo Fisher Scientific) to be expressed in Sf9 cells as described previously (Choi et al., Gen. Comp. Endocrinol., (2017) 246:354-62). To add a Kozak sequence (G/ANNATGG) in the translation initiation the ORFs of D. reticulatum GPCRs were amplified using specific primer sets. The sequences of two different ORFs of D. reticulatum GPCRs were confirmed after insertion into the expression vector.
Small synthetic peptides derived from the PRXamide family members identified from the gray garden slug and insects (Table 1), were tested to determine their binding activities to two slug GPCRs (receptor A and B) expressed in the Sf9 insect cell line. All peptide ligands of SEQ ID NOs: 1-16 and 19-28, as well as the “RY” dipeptide and “PRY” tripeptide (purity >95%) were synthesized from Peptide 2.0 (Chantily, VA, USA). Sf9 cells were cultured as described previously (Choi et al., supra). About 50,000 cells per well in a 96-well plate (Corning C3603) were incubated at 28° C. overnight. At 48 h, cells were rinsed with 100 μL of fresh medium without fetal bovine serum (FBS). Then, cells were incubated in 95 μL of 1×FLIPR Calcium 6 reagent (Molecular Devices, San Jose, CA, USA) containing 2.5 mM probenecid at room temperature in the dark for 1 h. The reagent-loaded cells were transferred to the Flexstation 3 multimode microplate reader (Molecular Devices) equipped with filters (excitation: 485 nm and emission: 520 nm) and an 8-channel pipettor. Fluorescence measurements from each well on the column were taken every 5 s for 4 min. After 30 s the peptide ligand (10 μL) was added with the pipettor and fluorescent intensity was measured for up to 3 min. Then, 5 μL of 1 μM ionomycin (Thermo Fisher Scientific) was added to the cells to obtain a maximum fluorescence reading. Baseline fluorescence was determined by averaging 5 time points from each well prior to treatment with ligand and the resulting response was expressed as a percent increase in fluorescence relative to baseline value. Cells were tested only once with a ligand then discarded. Data were analyzed using Microsoft Excel as described previously, and half-maximal effective concentration (EC50) values of ligands were determined using GraphPad Prism 6 (GraphPad Software, Inc., San Diego, CA).
The binding affinity to the two receptors of these two peptides, QPPLPRY-NH2 (SEQ ID NO: 3) and QPPVPRY-NH2 (SEQ ID NO: 4), was measured based on specific fluorescent intensity of the Sf9 cells expressing receptor A or receptor B in a 96-well plate. A strong fluorescent signal indicated strong binding activity between the peptide ligand and receptor.
To test the effect of varying individual amino acid residues and varying the length of the peptide of SEQ ID NO: 3, different amino acid residues were replaced with alanine (A), or the overall length of the peptide was reduced by sequentially removing amino acid residues from the N-terminal end of SEQ ID NO: 3 (Table 1, SEQ ID NO: 19, SEQ ID NO: 20, SEQ ID NO: 21, SEQ ID NO: 22, SEQ ID NO: 23, SEQ ID NO: 24, SEQ ID NO: 25, SEQ ID NO: 26, SEQ ID NO: 27, SEQ ID NO: 28). Altered peptides were tested and measured for binding activity with the receptors using the same methods as described above.

Assay [2] relates to gray garden slugs. The experiment in a line: Body weight loss and phenotype after peptide injection into slugs. The assay is classed as in vivo, Deroceras reticulatum. To be noted: for body weight loss relative to water control: 10 nmol injected, after 72 h. On the procedure: The gray garden slugs utilized herein (Deroceras reticulatum) were collected in Corvallis, Oregon, USA, and maintained with carrot and lettuce in a controlled incubator (13° C., 90% RH, 14: 10=light:dark, dim light). To test their effects on slugs, peptides of SEQ ID NO: 3 and SEQ ID NO: 4 were dissolved in 5 μl of purified water (10 nmol) and injected into four gray garden slugs per each treatment. Over 80% of the slug body weight was lost after 72 h when either peptide was injected into the slugs, almost 2-fold higher than the water control (FIG. 3).

Assay [3] has as its system gray garden slugs. The experiment in a line: Anti-feeding on peptide-treated lettuce leaf. To be noted: lettuce treated with 200 nmol peptide. It counts as in vivo, Deroceras reticulatum. On the procedure: The gray garden slugs utilized herein (Deroceras reticulatum) were collected in Corvallis, Oregon, USA, and maintained with carrot and lettuce in a controlled incubator (13° C., 90% RH, 14: 10=light:dark, dim light). To test for the effect of the peptides on feeding, slugs were fed a diet of lettuce leaf tissues treated with water alone or with 200 nmol of individual peptides (SEQ ID NO: 19, SEQ ID NO: 25, and SEQ ID NO: 26) dissolved in 10 μL water (FIG. 8). Ten gray garden slugs were used for each treatment and each treatment was replicated three times.

For assay [4], the system named is gray garden slugs. Nature of the assay: Mortality after peptide injection into slugs. To be noted: 100 nmol injected. It counts as in vivo, Deroceras reticulatum. As for the experimental part:
The gray garden slugs utilized herein (Deroceras reticulatum) were collected in Corvallis, Oregon, USA, and maintained with carrot and lettuce in a controlled incubator (13° C., 90% RH, 14: 10=light:dark, dim light). To test their effects on slugs, 100 nmol of each of the peptides (SEQ ID NO: 1, SEQ ID NO: 3, SEQ ID NO: 19, SEQ ID NO: 25 and SEQ ID NO: 26) was dissolved in 5 μL of purified water (100 nmol) and injected into 10 gray garden slugs per each treatment. Under dry conditions, after 24 h the slug mortalities observed were 40% with SEQ ID NO: 1, 70% with SEQ ID NO: 3, 90% with SEQ ID NO: 19, 70% with SEQ ID NO: 25, and 70% with SEQ ID NO: 26. […] Under wet conditions, the slug mortalities observed within 24 h were 40% with SEQ ID NO: 19, 40% with SEQ ID NO: 25, and 30% with SEQ ID NO: 26.

Setting [5] is: dry conditions (Petri dish), after 24 h.
Setting [6] is: wet conditions (Petri dish with wet paper towel), within 24 h.

“QPPVPRY [SEQ ID NO: 4, synthetic peptide, source D. reticulatum]”: the concentration for a half-maximal effect (EC50) in assay [1] was found to be 12.7 nM. Also, the “body weight loss relative to water control” value in assay [2] was approximately 2 fold.
Consider LPRY [SEQ ID NO: 26], for which the “binding activity / activation of the receptors” value (“binding activity / activation” for short) in assay [1] is “retained the ability to activate the receptors”. Moreover, the figures for the anti-feeding in assay [3] (within 1 h), in assay [3] (within 2 h) and in assay [3] (within 6 h) were 73.3%, 48.0% and 23.3%, respectively. The figures for the slug mortality in assay [4] (setting [5]) and in assay [4] (setting [6]) were 70% and 30%, respectively.
Regarding QPALPRY [SEQ ID NO: 21], the “binding activity / activation” value in assay [1] was “maintained binding activity and activated the receptors”.
For QPPAPRY [SEQ ID NO: 22], the “binding activity / activation” value in assay [1] was “maintained binding activity and activated the receptors”.
Same read-out and setting: then PPLPRY [SEQ ID NO: 27], with “retained the ability to activate the receptors”.
In assay [4] (setting [5]), “PMSMLRL [SEQ ID NO: 1, synthetic peptide, source D. reticulatum]” yielded a slug mortality of 40%.
For the substance “QPPLPRY [SEQ ID NO: 3, synthetic peptide, source D. reticulatum]”, in assay [1], the 50% effective concentration (EC50) amounted to 1.4 nM. In assay [2], the “body weight loss relative to water control” value was approximately 2 fold. In addition, in assay [2] (injected peptide, FIG. 4), the “phenotypic effects after injection” value is “excreted large volumes of milky mucus within 1 minute, exhibited body paralysis, extruding tentacles, weight loss and dehydration”. In addition, the values for the slug mortality in assay [4] (setting [5]) and in assay [4] (setting [6]) were 70% and “No mortalities were observed”, respectively.
Take QAPLPRY [SEQ ID NO: 20]: the “binding activity / activation” value in assay [1] is “maintained binding activity and activated the receptors”.
In the case of APPLPRY [SEQ ID NO: 19], the “binding activity / activation” value in assay [1] is “maintained binding activity and activated the receptors”. Moreover, the anti-feeding in assay [3] (within 1 h) is reported as 93.3%; in assay [3] (within 2 h) it was 91.3%; in assay [3] (within 6 h), 80.7%. Also, the results for the slug mortality in assay [4] (setting [5]) and in assay [4] (setting [6]) were 90% and 40%, respectively.
Consider PLPRY [SEQ ID NO: 28], for which the “binding activity / activation” value in assay [1] was “retained the ability to activate the receptors”.
With QPPLPRA [SEQ ID NO: 25], the anti-feeding in assay [3] (within 1 h) came out at 66.7%; in assay [3] (within 2 h), 46.7%; in assay [3] (within 6 h), 16.7%. Besides, the figures for the slug mortality in assay [4] (setting [5]) and in assay [4] (setting [6]) were 70% and 40%, respectively.

One may read the EC50 as the concentration at which the effect is half-maximal.

The values above are taken from patent publication US12557817B2, “Bioactive peptides having detrimental effects on pest slugs” (priority 2019, dated 2026).
